Experimental data as given in US10544138B2, “Tricyclic kinase inhibitors of MELK and methods of use” (Dana-Farber Cancer Institute, Inc., priority 2015, dated 2020).
Entries after “also recorded” stand apart in the source; their conditions may differ.

What was measured:
U2OS cells = assay: Live-cell imaging of mitotic progression in U2OS-GFP-H2B cells; assay type: cell-based, human; conditions: 1 μM, asynchronized U2OS cells; control 31.1 min
Method: U2OS-GFP-H2B cells were treated with vehicle control (0.02% DMSO, v/v) or 1 μM THZ-4-63-1, and subjected to live imaging. Time is given in hours:minutes, relative to the initial time of drug treatment. The arrow points to chromosomes that haven't incorporated into the metaphase plate. […] MDA-MB-468 cells expressing tet-on-shMELK and GFPH2B cells were treated with doxycycline for three days, before subjected to live imaging. Panel D contains images of immunoblotting of lysates from cells treated as in Panel C. Panel E contains images showing mitotic cell death in a cell treated with THZ-4-63-1. The table indicates the quantification of cell death events. Panel F contains images showing that treatment with THZ-4-63-1 impairs chromosome alignment. Cells were treated with DMSO control, or THZ-4-63-1 (5 μM) for 4 hours, followed by MG132 (10 μM) for 1 h. Cells were fixed and stained with anti-CREST, anti-α-tubulin, and DAPI to visualize chromosomes and kinetochores. The histogram indicates the quantifications of cells in metaphase with misaligned chromosomes.
To utilize this novel compound for probing the roles of MELK in mitosis, we first treated asynchronized U2OS cells with THZ-4-63-1 (1 μM), and subjected the cells for live-cell imaging. The fusion protein GFP-Histone H2B was stably introduced into the cells to facilitate observing chromosome dynamics^2,7. […]

MARK1 = MARK1 (Homo sapiens, UniProt Q9P0L2); assay: Recombinant AMPK family kinase assay, MARK1; assay type: biochemical; conditions: recombinant kinases
Sequence of MARK1 (Q9P0L2 whole entry, species assumed): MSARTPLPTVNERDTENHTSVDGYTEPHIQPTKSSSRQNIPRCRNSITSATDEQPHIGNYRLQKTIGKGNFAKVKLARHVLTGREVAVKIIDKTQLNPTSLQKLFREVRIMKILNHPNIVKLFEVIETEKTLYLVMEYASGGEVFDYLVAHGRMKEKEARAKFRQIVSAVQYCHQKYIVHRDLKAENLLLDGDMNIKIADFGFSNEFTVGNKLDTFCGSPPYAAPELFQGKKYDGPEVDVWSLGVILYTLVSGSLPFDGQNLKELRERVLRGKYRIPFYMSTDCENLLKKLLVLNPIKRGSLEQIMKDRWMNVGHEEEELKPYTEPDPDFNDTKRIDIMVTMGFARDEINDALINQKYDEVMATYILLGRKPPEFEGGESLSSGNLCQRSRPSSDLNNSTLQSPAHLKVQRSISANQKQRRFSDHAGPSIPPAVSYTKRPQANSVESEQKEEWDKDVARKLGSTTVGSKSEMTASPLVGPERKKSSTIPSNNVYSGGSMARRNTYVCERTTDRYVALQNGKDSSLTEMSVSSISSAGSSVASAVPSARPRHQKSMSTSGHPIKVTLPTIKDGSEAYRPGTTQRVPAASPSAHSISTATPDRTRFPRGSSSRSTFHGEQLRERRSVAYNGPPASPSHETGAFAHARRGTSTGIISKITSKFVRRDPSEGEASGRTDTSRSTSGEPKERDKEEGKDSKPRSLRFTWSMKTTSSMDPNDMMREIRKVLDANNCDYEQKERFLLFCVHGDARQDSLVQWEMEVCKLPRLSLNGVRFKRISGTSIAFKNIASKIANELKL
Method: (§1) […] assays were performed with recombinant protein of the indicated mitotic kinase (left) and AMPK family kinases (right) in the presence of THZ-4-63-1. […] Cells were treated with nocodazole (100 ng/ml) for 18 h or not treated (Asyn., asynchronous). Nocodazole-arrested mitotic cells (M) were isolated via shake-off. The attached cells enriched in G2 phase (G2) were harvested. A portion of the mitotic cells were washed off nocodazole and released into G1 phase after 4 hours of incubation (G1). […] In Panel D, mitotic lysates were prepared from the indicated cells, and treated with λ-phosphatase at 30° C. In Panel E, nocodazole-arrested mitotic cells were treated with increasing concentration of THZ-4-63-1 for 30 min. Cell lysates were subjected to immunoblotting.
(§2) To discover a selective MELK inhibitor, a few molecule scaffolds with the potential of binding to MELK were identified, including 2,4-disubstituted pyrimidines and benzonaphthyridinones. […] To investigate if THZ-4-63-1 confers selective inhibition on MELK, we tested its effect on other mitotic kinases. In assays using recombinant kinases, MELK kinase activity was 20-fold more sensitive to THZ-4-63-1, than that of Aurora A, Aurora B, CDK1, or PLK1 (FIG. 1B).

MELK = MELK (Homo sapiens, UniProt Q14680); assay: Electrophoretic mobility (auto-phosphorylation) of MELK in nocodazole-arrested mitotic cells, immunoblotting; assay type: cell-based; conditions: nocodazole-arrested mitotic cells (HeLa, MDA-MB-231), 30 min, increasing concentration
Sequence of MELK (Q14680 whole entry): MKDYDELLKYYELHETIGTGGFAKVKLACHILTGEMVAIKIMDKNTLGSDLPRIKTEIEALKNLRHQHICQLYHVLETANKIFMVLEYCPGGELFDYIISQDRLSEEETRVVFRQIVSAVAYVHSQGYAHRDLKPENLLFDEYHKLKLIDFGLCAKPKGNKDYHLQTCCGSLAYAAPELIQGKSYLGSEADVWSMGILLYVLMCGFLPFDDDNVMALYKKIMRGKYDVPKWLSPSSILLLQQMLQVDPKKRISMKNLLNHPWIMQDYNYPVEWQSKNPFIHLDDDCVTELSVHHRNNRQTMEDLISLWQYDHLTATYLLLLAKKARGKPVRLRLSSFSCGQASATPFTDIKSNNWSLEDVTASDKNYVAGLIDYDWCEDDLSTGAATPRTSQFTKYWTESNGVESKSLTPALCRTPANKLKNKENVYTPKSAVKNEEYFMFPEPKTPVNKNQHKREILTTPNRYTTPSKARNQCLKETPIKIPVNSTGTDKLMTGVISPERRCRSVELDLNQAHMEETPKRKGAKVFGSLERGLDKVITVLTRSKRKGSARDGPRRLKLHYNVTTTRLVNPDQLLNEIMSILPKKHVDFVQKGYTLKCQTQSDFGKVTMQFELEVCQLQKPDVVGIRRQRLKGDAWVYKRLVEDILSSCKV
Method: as §1
Cell lysates were subjected to immunoblotting. […] The fluorescent signals of immunblotting were quantified using Image Studio Lite software (Licor Biosciences, Lincoln, Neb.). The signal of phosphorylated Aurora kinases was normalized to that of loading control (α-tubulin).
We next proceeded to test if THZ-4-63-1 inhibits MELK activity in vivo. With a lack of established kinase substrates of MELK during mitosis, we used the auto-phosphorylation of MELK as a surrogate to indicate the activity of MELK. […] We then harvested nocodazole-arrested mitotic cells, and treated cells with increasing concentrations of THZ-4-63-1.

NUAK1 = target: T1, NUAK1 (Homo sapiens, UniProt O60285); assay: Recombinant AMPK family kinase assay, NUAK1; assay type: biochemical; conditions: recombinant kinases
T1 sequence (O60285 1-661): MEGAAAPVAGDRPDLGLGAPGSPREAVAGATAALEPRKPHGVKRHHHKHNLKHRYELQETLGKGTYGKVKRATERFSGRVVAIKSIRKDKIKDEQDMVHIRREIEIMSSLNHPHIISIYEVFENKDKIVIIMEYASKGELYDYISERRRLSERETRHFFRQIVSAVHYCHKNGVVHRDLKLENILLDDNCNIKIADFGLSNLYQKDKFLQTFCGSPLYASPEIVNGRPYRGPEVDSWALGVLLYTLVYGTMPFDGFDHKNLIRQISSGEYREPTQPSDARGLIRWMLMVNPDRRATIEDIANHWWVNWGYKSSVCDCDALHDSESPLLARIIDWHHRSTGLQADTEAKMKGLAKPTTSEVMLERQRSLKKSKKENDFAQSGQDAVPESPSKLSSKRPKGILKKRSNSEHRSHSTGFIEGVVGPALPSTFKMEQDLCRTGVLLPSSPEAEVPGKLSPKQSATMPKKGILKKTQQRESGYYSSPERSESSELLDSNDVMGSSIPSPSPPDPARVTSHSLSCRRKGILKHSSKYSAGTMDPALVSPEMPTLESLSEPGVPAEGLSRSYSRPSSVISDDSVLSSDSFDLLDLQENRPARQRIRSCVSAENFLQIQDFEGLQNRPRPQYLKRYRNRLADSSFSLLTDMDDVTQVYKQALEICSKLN
Method: as §1, §2

Aurora B = Aurora B (Homo sapiens, UniProt Q96GD4); assay: Recombinant mitotic kinase assay, Aurora B; assay type: biochemical; conditions: recombinant kinases
Sequence of Aurora B (Q96GD4 whole entry): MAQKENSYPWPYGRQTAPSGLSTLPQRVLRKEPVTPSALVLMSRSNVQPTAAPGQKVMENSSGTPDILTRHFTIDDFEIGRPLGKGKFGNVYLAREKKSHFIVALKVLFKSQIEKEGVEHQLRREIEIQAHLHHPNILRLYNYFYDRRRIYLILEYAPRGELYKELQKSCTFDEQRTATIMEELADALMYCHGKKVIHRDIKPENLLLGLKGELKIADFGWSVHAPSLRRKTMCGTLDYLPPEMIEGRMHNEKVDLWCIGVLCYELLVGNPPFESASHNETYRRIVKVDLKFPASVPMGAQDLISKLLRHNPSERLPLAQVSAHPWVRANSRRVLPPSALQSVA
Method: as §1, §2

[1] = system: basal breast cancer cells; assay: Proliferation of basal breast cancer cells; assay type: cell-based
Method: Mitotic cells were treated with THZ-4-63-1 at indicated concentrations for 4 h. Cells were collected for immunoblotting. Panel B contains time-lapse images of U2OS-(H2B-GFP) cells treated with THZ-4-63-1 (5 μM). […] Panel C contains blots showing proteasome-mediated degradation of Cyclin B1, Aurora B and MELK in THZ-4-63-1-induced mitotic slippage. Mitotic cells were treated as in Panel A with THZ-4-63-1 (5 μM), or MG132 (10 μM), or both for 4 h. Panel D contains a graph showing quantification of cell proliferation in the indicated breast cancer cell lines, which were treated with vehicle control or THZ-4-63-1 for one week (Top) and also contains bright-field images acquired from control cells or cells treated with THZ-4-63-1 (111 nM) (Bottom). […] Cells were treated with indicated drugs, and harvested in ten days for quantification of cell growth. The bold curve depicts the theoretic prediction of an additive action between paclitaxel and THZ-4-63-1.
With the identification of a selective MELK inhibitor, we next tested if THZ-4-63-1 is an effective agent for those cancer cells. […] The high potency of THZ-4-63-1 not only confirm the previous identification of MELK as an essential kinase for breast cancer, but also poise the compound itself for immediate translational implications.

CN(C)Cc1ccc(-n2c(=O)ccc3cnc4ccc(-c5cc(Cl)c(O)c(Cl)c5)cc4c32)cc1 [THZ-4-63-1]
Time from nuclear envelope breakdown (NEBD) to anaphase, mean (U2OS cells): 66.4 min | Selectivity for MELK over MARK1 (MARK1): preferentially targets MELK | Electrophoretic mobility of mitotic MELK (MELK): increases the electrophoretic mobility of mitotic MELK; also recorded: readily altered the mobility shift in a dose-dependent manner | Selectivity for MELK over NUAK1 (NUAK1): preferentially targets MELK | MELK kinase activity more sensitive than that of Aurora B (Aurora B): 20 fold | IC50 ([1]; 168 h, treated one week): ~50 nM | Cell death at low nanomolar dose ([1]; basal breast cancer cells): nearly complete cell death
